According to patent publication US11712439B2, “Methods and materials for identifying and treating bet inhibitor-resistant cancers” (Mayo Foundation for Medical Education and Research, priority 2017, dated 2023):

Columns and labels:
Assay type in all cases: cell-based, human
[1] = test system: HER3, IGF1R and INSR; assay: Western blot of receptor tyrosine kinases in C4-2 cells; settings: control or SPOP-F133V C4-2 cells, JQ1 1 μM 24 hours
Method: (§1) Cell lysates or immunoprecipitates were subjected to SDS-PAGE, and proteins were transferred to nitrocellulose membranes (GE Healthcare Sciences). The membranes were blocked in Tris-buffered saline (TBS, pH 7.4) containing 5% non-fat milk and 0.1% Tween-20, washed twice in TBS containing 0.1% Tween-20, and incubated with primary antibody overnight at 4° C., followed by secondary antibody for 1 hour at room temperature. The proteins of interest were visualized using ECL chemiluminescence system (Santa Cruz Biotechnology). Densitometry analysis of protein bands was analyzed on the Gel-Pro Analyzer software.

[2] = test system: ERG; assay: Western blot of ERG in prostate cancer cells and xenograft tumors; settings: C4-2 and 22Rv1 cells, JQ1 1 μM 24 hours; C4-2 tumors in mice
Method: as §1

[3] = test system: SPOP-BRD2/3/4 protein interaction; assay: Co-immunoprecipitation of SPOP with BRD2/3/4 in 293T cells; settings: JQ1 1 μM for 24 hours
Method: To immunoprecipitate the ectopically expressed FLAG-tagged proteins, transfected cells were lysed 24 hours post-transfection in BC100 buffer. The whole-cell lysates were immunoprecipitated with the monoclonal anti-FLAG antibody-conjugated M2 agarose beads (Sigma-Aldrich) at 4° C. overnight. After three washes with lysis buffer, followed by two washes with BC100 buffer, the bound proteins were eluted using FLAG-Peptide (Sigma-Aldrich) prepared in BC100 for 3 hours at 4° C. The eluted protein sample was resolved by SDS-PAGE. To immunoprecipitate the endogenous proteins, cells were lysed with 1× cell lysis buffer (Cell Signaling Technology), and the lysate was centrifuged. The supernatant was precleared with protein A/G beads (Sigma-Aldrich) and incubated with the indicated antibody and protein A/G beads at 4° C. overnight. Beads were washed five times with lysis buffer and resuspended in sample buffer and analyzed by SDS-PAGE.

[4] = test system: AR; assay: Western blot of AR, RT-qPCR of AR target genes and AR ChIP-qPCR in C4-2 cells; settings: control and SPOP-F133V C4-2 cells, JQ1 1 μM 24 hours
Method: as §1
Total RNA was isolated from transiently transfected cells using the Trizol reagent (Thermo Fisher Scientific), and cDNA was reverse-transcribed using the Superscript RT kit (TOYOBO, Japan) according to the manufacturer's instructions. PCR amplification was performed using the SYBR Green PCR master mix Kit (TOYOBO, Japan). All quantization was normalized to the level of endogenous control GAPDH. […]

For `Cc1sc2c(c1C)C(c1ccc(Cl)cc1)=N[C@@H](CC(=O)OC(C)(C)C)c1nnc(C)n1-2` [JQ1], the “Expression of HER3, IGF1R and INSR” value [1] was “no effect”, the ERG expression [2] was “largely decreased ERG expression” and the SPOP-BRD2/3/4 protein interaction [3] was “diminished”. For the same molecule, the AR protein level [4] was “largely decreased” and the AR transcriptional activity [4] was “largely decreased”.
